Values belong to the molecule of their own block, whether it stands above or below them.
Experiments:
human PPARα = target: T1, human PPARα (Homo sapiens, UniProt Q07869); experiment: PPARα reporter cell assay, agonist mode; format: cell-based
T1 construct: expressed in transfected cells; host or cells: CHO
T1 sequence (Q07869 239-466 limits assumed): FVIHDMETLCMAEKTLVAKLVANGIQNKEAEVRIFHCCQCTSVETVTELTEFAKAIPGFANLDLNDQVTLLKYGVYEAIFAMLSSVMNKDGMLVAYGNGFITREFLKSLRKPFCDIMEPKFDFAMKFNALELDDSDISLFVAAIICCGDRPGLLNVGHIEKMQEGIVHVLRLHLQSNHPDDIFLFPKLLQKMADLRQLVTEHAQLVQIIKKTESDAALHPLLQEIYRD

human PPARδ = target: T2, human PPARδ (Homo sapiens, UniProt Q03181); experiment: PPARδ reporter cell assay, agonist mode; format: cell-based
T2 construct: expressed in transfected cells; host or cells: CHO
T2 sequence (Q03181 211-439 limits assumed): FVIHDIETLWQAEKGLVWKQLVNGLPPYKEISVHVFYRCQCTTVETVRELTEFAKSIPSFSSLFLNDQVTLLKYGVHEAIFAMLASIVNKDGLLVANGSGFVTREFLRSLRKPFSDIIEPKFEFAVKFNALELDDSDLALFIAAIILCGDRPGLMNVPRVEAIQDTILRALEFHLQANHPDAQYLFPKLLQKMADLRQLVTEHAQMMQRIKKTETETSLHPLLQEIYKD

human PPARγ = target: T3, human PPARγ (Homo sapiens, UniProt P37231); experiment: PPARγ reporter cell assay, agonist mode; format: cell-based
T3 construct: expressed in transfected cells; host or cells: CHO
T3 sequence (P37231 238-503 limits assumed): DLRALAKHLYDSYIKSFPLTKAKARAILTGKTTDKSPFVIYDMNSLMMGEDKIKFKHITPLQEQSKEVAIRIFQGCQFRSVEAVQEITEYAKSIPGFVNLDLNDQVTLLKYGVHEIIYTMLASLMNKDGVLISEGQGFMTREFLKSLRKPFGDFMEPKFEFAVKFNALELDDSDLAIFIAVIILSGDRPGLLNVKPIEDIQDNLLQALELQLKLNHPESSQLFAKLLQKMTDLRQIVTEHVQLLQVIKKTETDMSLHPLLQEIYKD

human NF-κB = experiment: NF-κB reporter cell assay, antagonist mode; format: cell-based
[1] = tested on: NF-κB reporter cells (HEK293); experiment: Live cell multiplex read-out in the NF-κB antagonist assay; format: cell-based, human; details: 1.42 μg/ml
Method: Various receptor assays were carried out for test compounds corresponding to ingredients of the nutritional supplement composition. In general, the receptor assays utilized reporter cells that either expressed a native receptor or a receptor hybrid. The receptor hybrids were engineered so that the native N-terminal DNA binding domain (DBD) was replaced with a yeast Gal4 DBD. The reporter cells expressed a hybrid receptor comprising either the native receptor (Nrf2 and NF-κB) or the N-terminal Gal4 DNA binding domain fused to the ligand binding domain of the specific human nuclear receptor (PPARα, PPARδ, and PPARγ). The reporter gene (e.g., firefly luciferase) was functionally linked to either upstream receptor-specific response elements (GRE) or the Gal4 upstream activation sequence (UAS). A summary of the receptors, the reporter cells used for each particular receptor assay, and the reference compounds used to confirm performance of the receptor assays are indicated below in Table 4.
A vehicle control was prepared. […] After incubation, fluorescence was measured to determine a relative number of live cells per test well.

C. elegans strain CB5586 = experiment: Phenotypic lifespan screening in C. elegans; format: in vivo; details: 0.1 and 10 mg/ml tested
Method: Dilutions of the test formulations were applied to individual populations of C. elegans and the lifespan of each population was monitored. Any changes in the lifespan of an individual population compared to a control population were recorded and correlated to the respective test formulation (N356 or N357) and the respective dilution (0.1 mg/ml, 1 mg/ml, and 10 mg/ml).
The N256 and N357 formulations were each prepared as individual 100 mg/ml stock solutions in dimethyl sulfoxide (DMSO). Serial dilutions of each stock solution were then prepared at 0.1 mg/ml, 1 mg/ml, and 10 mg/ml in DMSO. Control solutions of DMSO only were also prepared. Synchronous aged adult populations of C. elegans strain CB5586 worms were prepared. The CB5586 strain comprises a pharyngeal GFP (green fluorescent protein) tag and a mutation in the bus-5 gene. The pharyngeal GFP tag allows for fluorescent images of the worm populations to be taken. The mutation in the bus-5 gene causes the loss of normal cuticle antigens that permits the cuticle of the worms to become permeable to the test formulations and allow direct uptake of the test formulations to avoid interaction of the test formulations with protective mechanisms of the gut channel. Each serial dilution of each test formulation was added to a separate population of the prepared worms. The control solutions were also added to separate populations of the prepared worms. The populations of the prepared worms were then maintained on standard nematode growth media (NGM) agar plates at 20° C. with sufficient food (Escherichia coli strain OP-50).
Each worm population was then monitored by fluorescent imaging to determine the number of living and dead worms as a function of time. The fluorescent imaging was analyzed by software that recognized and counted worms based on their fluorescent intensity compared to background fluorescence. […] The ability to distinguish between living and dead worms allowed the number of living worms and a cumulative number of dead worms to be monitored against time. Worm populations from a selection of fluorescent images were manually checked to verify that the software had accurately counted the number of living and dead worms.
The counts of the living and dead worms as a function of time were then analyzed for each of the worm populations and used to prepare Kaplan-Meier survival curves and associated statistics for each of the worm populations. […] The median lifespan is shown as the length of time after the last mitotic division that 50% of the test population remains viable when compared to the control population. The maximum lifespan extension is shown as the length of time after the last mitotic division that 5% of the test population remains viable when compared to the control population.
The counts of the living and dead worms as a function of time and the Kaplan-Meier survival curves and the associated statistics were then analyzed for each of the worm populations. The analysis included determining mean and median lifespan. The analysis included a non-parametric test, the Log-Rank test, which compares two survival functions for the overall lifespan assay and provides a reliable p-value summarizing the whole experiment. The analysis also included Fisher's Exact Test that calculated the significance of survival function comparisons at multiple specific time points throughout the experiment, rather than for the overall lifespan. The results of the analysis are shown below in Tables 10-17.
Phenotypic screening was carried out as described in EXAMPLE 2 for various individual compounds of the N357 formulation. […] Alpha lipoic acid was sourced from PureBulk™ USA as a racemic mix of R and S stereoisomers and was assigned a sample number of N198. Hesperidin was sourced from Sigma Aldrich at ≥80% purity and was assigned a sample number of N347. […]

Nrf2 = Nrf2 signaling fluorescent reporter assay in human retinal epithelial cell line; format: cell-based; details: 100 and 30 μM
Method: The assays were carried out with a fluorescent reporter assay that utilized a human retinal epithelial cell line. The assays also included validation by RT-PCR (reverse transcription polymerase chain reaction) of Nrf2 target genes. The human retinal epithelial cell line was purchased from ATCC (American Type Cell Culture, Manassas, Va.) and was configured to function as a fluorescent reporter assay. Test solutions of each of the alpha lipoic acid, resveratrol, curcumin, EGCG, Olivol®, rutin, quercetin, and hesperetin were prepared by serial dilution. Control solutions were also prepared. Positive control solutions of a known Nrf2 agonist, L-sulphoraphane was also prepared. Each test solution was then assayed for Nrf2 signaling activity using the fluorescent reporter assay and compared to control assays. The positive control solutions were also tested.

mTOR = target: T4, mTOR (Homo sapiens, UniProt P42345); details: cited from earlier work; for mTOR inhibition: applied to isolated cells in culture
T4 construct: host or cells: isolated cells in culture (not specified)

- PPARα Fold-Activation (human PPARα; 1.42 μg/ml): 1.4
- PPARα Fold-Activation (human PPARα; 4.25 μg/ml): 1.3
- PPARα Fold-Activation (human PPARα; 12.7 μg/ml): 1.2
- PPARα Fold-Activation (human PPARα; 38.23 μg/ml): 1.5
- PPARα Fold-Activation (human PPARα; 114.70 μg/ml): 2.3
- PPARδ Fold-Activation (human PPARδ; 1.42 μg/ml): 1.5
- PPARδ Fold-Activation (human PPARδ; 4.25 μg/ml): 1.1
- PPARδ Fold-Activation (human PPARδ; 12.7 μg/ml): 0.80
- PPARδ Fold-Activation (human PPARδ; 38.23 μg/ml): 0.52
- PPARδ Fold-Activation (human PPARδ; 114.70 μg/ml): 0.29
- PPARγ Fold-Activation (human PPARγ; 1.42 μg/ml): 1.1
- PPARγ Fold-Activation (human PPARγ; 4.25 μg/ml): 1.1
- PPARγ Fold-Activation (human PPARγ; 12.7 μg/ml): 1.3
- PPARγ Fold-Activation (human PPARγ; 38.23 μg/ml): 1.4
- PPARγ Fold-Activation (human PPARγ; 114.70 μg/ml): 3.4
Structure (SMILES): O=C(O)CCCCC1CCSS1 (racemic) [Alpha lipoic acid, alpha lipoic acid]
- NF-κB % Inhibition (human NF-κB; 4.25 μg/ml): −0.70%
- NF-κB % Live Cell [1]: 100%
- effect on chronological lifespan (C. elegans strain CB5586): significant positive and dose-dependent increase of chronological lifespan
- activation of Nrf2 (Nrf2): demonstrated activation of Nrf2

- PPARα Fold-Activation (human PPARα; 0.007 μg/ml): 1.3
- PPARα Fold-Activation (human PPARα; 0.022 μg/ml): 1.3
- PPARα Fold-Activation (human PPARα; 0.067 μg/ml): 1.3
- PPARα Fold-Activation (human PPARα; 0.20 μg/ml): 1.1
- PPARα Fold-Activation (human PPARα; 0.60 μg/ml): 1.0
- PPARα Fold-Activation (human PPARα; 1.81 μg/ml): 0.86
- PPARδ Fold-Activation (human PPARδ; 0.007 μg/ml): 1.2
- PPARδ Fold-Activation (human PPARδ; 0.022 μg/ml): 1.2
- PPARδ Fold-Activation (human PPARδ; 0.067 μg/ml): 1.0
- PPARδ Fold-Activation (human PPARδ; 0.20 μg/ml): 1.2
- PPARδ Fold-Activation (human PPARδ; 0.60 μg/ml): 1.3
- PPARδ Fold-Activation (human PPARδ; 1.81 μg/ml): 1.0
- PPARγ Fold-Activation (human PPARγ; 0.007 μg/ml): 1.0
- PPARγ Fold-Activation (human PPARγ; 0.022 μg/ml): 1.0
- PPARγ Fold-Activation (human PPARγ; 0.067 μg/ml): 0.95
- PPARγ Fold-Activation (human PPARγ; 0.20 μg/ml): 0.96
- PPARγ Fold-Activation (human PPARγ; 0.60 μg/ml): 0.90
- PPARγ Fold-Activation (human PPARγ; 1.81 μg/ml): 1.1
Structure (SMILES): COc1cc(/C=C/C(=O)CC(=O)/C=C/c2ccc(O)c(OC)c2)ccc1O [Curcumin, curcumin]
- NF-κB % Inhibition (human NF-κB; 0.007 μg/ml): −10%
- NF-κB % Inhibition (human NF-κB; 0.60 μg/ml): 30%
- mTOR inhibition (mTOR): inhibit mTOR
- mTOR inhibition, mitophagy and mitochondrial turnover (mTOR): inhibit mTOR, up-regulate mitophagy, and increase the rate of mitochondrial turnover

Structure (SMILES): O=C(O[C@@H]1Cc2c(O)cc(O)cc2O[C@@H]1c1cc(O)c(O)c(O)c1)c1cc(O)c(O)c(O)c1 [EGCG, epigallocatechin gallate]
- NF-κB % Inhibition (human NF-κB; 0.033 μg/ml): 10%
- NF-κB % Inhibition (human NF-κB; 0.098 μg/ml): 18%
- NF-κB % Inhibition (human NF-κB; 0.30 μg/ml): 0.10%
- NF-κB % Inhibition (human NF-κB; 0.89 μg/ml): 8.4%
- NF-κB % Inhibition (human NF-κB; 2.67 μg/ml): −15%
- NF-κB % Inhibition (human NF-κB; 8 μg/ml): −29%
- mTOR inhibition (mTOR): inhibit mTOR
- mTOR inhibition, mitophagy and mitochondrial turnover (mTOR): inhibit mTOR, up-regulate mitophagy, and increase the rate of mitochondrial turnover

- PPARα Fold-Activation (human PPARα; 0.043 μg/ml): 1.4
- PPARα Fold-Activation (human PPARα; 0.389 μg/ml): 1.2
- PPARα Fold-Activation (human PPARα; 1.167 μg/ml): 1.0
- PPARα Fold-Activation (human PPARα; 3.5 μg/ml): 0.79
- PPARδ Fold-Activation (human PPARδ; 0.043 μg/ml): 1.1
- PPARδ Fold-Activation (human PPARδ; 0.389 μg/ml): 1.0
- PPARδ Fold-Activation (human PPARδ; 1.167 μg/ml): 1.1
- PPARδ Fold-Activation (human PPARδ; 3.5 μg/ml): 0.89
- PPARγ Fold-Activation (human PPARγ; 0.043 μg/ml): 1.0
- PPARγ Fold-Activation (human PPARγ; 0.389 μg/ml): 1.1
- PPARγ Fold-Activation (human PPARγ; 1.167 μg/ml): 1.1
- PPARγ Fold-Activation (human PPARγ; 3.5 μg/ml): 0.55
Structure (SMILES): COc1ccc([C@@H]2CC(=O)c3c(O)cc(O)cc3O2)cc1O [Hesperetin, (S)-2,3-Dihydro-5,7-dihydroxy-2-(3-hydroxy-4-methoxyphenyl)-4H-1-benzopyran-4-one]
